From US4318858A, “Thioethylamide derivatives” (Shionogi & Co., Ltd., priority 1979, dated 1982) come the findings set out here.

Structures are written as SMILES.

T1 sequence (P47747 whole entry): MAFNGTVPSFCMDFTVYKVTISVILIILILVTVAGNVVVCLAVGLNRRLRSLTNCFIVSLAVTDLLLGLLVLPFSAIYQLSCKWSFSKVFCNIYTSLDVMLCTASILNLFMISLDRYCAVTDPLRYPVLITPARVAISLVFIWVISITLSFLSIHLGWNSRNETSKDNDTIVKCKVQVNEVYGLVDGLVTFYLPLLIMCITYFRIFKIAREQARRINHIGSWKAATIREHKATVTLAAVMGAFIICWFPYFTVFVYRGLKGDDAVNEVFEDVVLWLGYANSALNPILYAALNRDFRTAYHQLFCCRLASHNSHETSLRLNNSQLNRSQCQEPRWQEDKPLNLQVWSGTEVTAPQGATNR

The first data set addresses T1, histamine H2 receptor (Cavia porcellus, UniProt P47747).
T1 construct: guinea pig's enucleated atrium; from tissue; host or cells: guinea pig isolated ("enucleated") atrium
Kind of data set: inhibition of the palpitation number of guinea pig's enucleated atrium (histamine antagonism). Conditions: compounds (I) as the oxalates. Type of data set: cell-based. The text has this:
The pA2 value is defined as a negative logarithm of the concentratio
of the compound (I) required to shift the doseresponse of histamine to th
high concentration side by 2fold. [Ariens, E.J., Molecular Pharmacology,
(1964), Academic Press, New York and London].
The Kb is the equilibrium dissociation constant of an antagonist, usually derived from a functional assay. Low readings indicate a more potent antagonist, high ones a less potent antagonist. Turning to `COC(=O)c1ccc(C(=O)NCCSCc2ccc(CN3CCCC3)s2)cc1`, the Kb is 550 nM. The same measure, in the same setting: the value for `COC(=O)c1ccc(C(=O)NCCSCc2ccc(CN(C)C)o2)cc1` [Test No. 4] was 468 nM; that for `CC=CC=CC(=O)NCCSCc1ccc(CN(C)C)o1` [Test No. 5] was 1910 nM. Still for that read-out and setting: the value for `CN(C)Cc1ccc(CSCCNC=O)o1` [Test No. 6] was 1860 nM; that for `CN(C)Cc1ccc(CSCCNC(=O)c2ccc(S(N)(=O)=O)cc2)o1` [Test No. 7] was 151 nM.

In turn, `O=C(NCCSCc1ccc(CN2CCCC2)s1)c1ccc([N+](=O)[O-])cc1` [Test No. 9] had a Kb of 912 nM.

For the molecule `Cc1cc(CSCCNC(=O)c2ccc(S(N)(=O)=O)cc2)sc1CN1CCCC1` [Test No. 10], the Kb is 2190 nM. Same read-out and setting: the value for `CC(C)c1cc(CN2CCCC2)sc1CSCCNC(=O)c1cccnc1` [Test No. 11] was 501 nM; that for `Cc1cc(CSCCNC(=O)c2ccc([N+](=O)[O-])cc2)oc1CN1CCCC1` [Test No. 12] was 851 nM.

For another data set, the system named is gastric acid secretion. The data set is described as follows: gastric acid secretion inhibiting activity in Donryu male rats (pH value in the stomach). It is filed as in vivo. The following applies: Rattus norvegicus, oxalate.
A word on the ED50: it is the dose that gives a 50% effect, or the effect in half of the subjects. Higher therefore signals a need for a large dose. As for `CN(C)Cc1ccc(CSCCNC(=O)c2ccc(S(N)(=O)=O)cc2)o1.O=C(O)C(=O)O` [N-[2-[[(5-dimethylaminomethyl-2-furyl)-methyl]thio]ethyl]-4-sulfamoylbenzamide oxalate], the ED50 turned out to be 2.54 mg/kg.

Tested on in another data set: not listed separately
The data set is described as follows: acute toxicity in mice. Conditions: mouse, in vivo, iv, oxalate, read-out: acute toxicity LD50 i.v.
In general, LD50 refers to the dose expected to kill half of the subjects tested. Turning to `CN(C)Cc1ccc(CSCCNC(=O)c2ccc(S(N)(=O)=O)cc2)o1.O=C(O)C(=O)O` [N-[2-[[(5-dimethylaminomethyl-2-furyl)-methyl]thio]ethyl]-4-sulfamoylbenzamide oxalate], the 50% lethal dose (LD50) came to 150 mg/kg.

Still in this data set, the particulars now being: mouse, in vivo, po, oxalate, read-out: acute toxicity LD50 p.o.
On to `CN(C)Cc1ccc(CSCCNC(=O)c2ccc(S(N)(=O)=O)cc2)o1.O=C(O)C(=O)O` [N-[2-[[(5-dimethylaminomethyl-2-furyl)-methyl]thio]ethyl]-4-sulfamoylbenzamide oxalate], for which the LD50 is greater than 1000 mg/kg.
